Data published in patent US10221139B2, “Inhibitors of histone demethylases” (Gilead Sciences, Inc., priority 2012, dated 2019).

Legend:
Type in all cases: cell-based
Conditions in all cases: 20 hours
JMJD2A (KDM4A) = target: T1, JMJD2A (KDM4A) (Homo sapiens, UniProt O75164); test: Immunofluorescence assay in U2OS cells transfected with pCMVHA JMJD2A (H3K9me3 mark)
T1 construct: Full length; host or cells: U2OS
T1 sequence (O75164 1-1064): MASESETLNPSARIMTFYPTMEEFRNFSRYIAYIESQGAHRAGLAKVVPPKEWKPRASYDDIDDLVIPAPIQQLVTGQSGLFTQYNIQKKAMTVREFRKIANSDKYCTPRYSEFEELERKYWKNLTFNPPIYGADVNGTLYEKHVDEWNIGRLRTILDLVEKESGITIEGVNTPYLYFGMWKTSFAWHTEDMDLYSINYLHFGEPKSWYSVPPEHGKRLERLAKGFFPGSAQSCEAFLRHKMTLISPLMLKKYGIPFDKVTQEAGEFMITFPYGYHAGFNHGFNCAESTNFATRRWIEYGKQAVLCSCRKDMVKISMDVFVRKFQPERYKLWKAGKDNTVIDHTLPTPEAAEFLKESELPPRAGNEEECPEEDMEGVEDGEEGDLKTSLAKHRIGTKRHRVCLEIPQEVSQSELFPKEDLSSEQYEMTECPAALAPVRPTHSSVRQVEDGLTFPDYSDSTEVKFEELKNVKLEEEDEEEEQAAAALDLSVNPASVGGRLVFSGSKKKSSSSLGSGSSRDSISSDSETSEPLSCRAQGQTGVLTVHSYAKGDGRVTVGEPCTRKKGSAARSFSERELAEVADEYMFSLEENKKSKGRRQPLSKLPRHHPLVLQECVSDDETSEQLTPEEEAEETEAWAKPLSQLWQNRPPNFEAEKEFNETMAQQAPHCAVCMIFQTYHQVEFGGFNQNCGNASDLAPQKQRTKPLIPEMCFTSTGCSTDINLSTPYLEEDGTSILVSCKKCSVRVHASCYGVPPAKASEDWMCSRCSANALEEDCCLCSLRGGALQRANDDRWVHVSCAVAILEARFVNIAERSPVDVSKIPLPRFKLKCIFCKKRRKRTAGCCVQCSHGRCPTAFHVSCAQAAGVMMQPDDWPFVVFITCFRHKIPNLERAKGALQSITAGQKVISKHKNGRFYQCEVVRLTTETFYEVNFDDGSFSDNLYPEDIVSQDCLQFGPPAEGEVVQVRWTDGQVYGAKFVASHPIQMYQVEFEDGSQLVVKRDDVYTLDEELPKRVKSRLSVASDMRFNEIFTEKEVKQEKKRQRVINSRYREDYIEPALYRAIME
Procedure: (§1) U2OS cells were seeded 24 hours before transfection. Transfection was performed with Fugene HD transfection reagent as recommended by the manufacturer. 6 hours after transfection, the cells were harvested and seeded into multi well plates into media containing compound. The media used was DMEM containing 5% FBS and pen/strep. 20 hours after incubation of cells with compounds, the cells were washed once in PBS, harvested by fixation with formaldehyde 4% aqueous solution, and washed 2 times in PBS. Subsequently, the cells were permeabilized in PBS with 0.2% Triton X-100 for 10 min at room temperature. Blocking was performed in PBS with 0.2% Triton X-100 and 5% FBS for 45 min at room temperature. The cells were incubated with primary antibodies diluted 1 μg/ml in blocking solution over night at 4° C. The primary antibodies used in the assays were HA.11 (Covance, MMS-101P) and the antibody detecting the mark specified in the Table 6 below. After incubation with primary antibodies, the cells were washed 3 times with PBS, incubated with secondary antibodies diluted 1:1000 (Alexa fluor 594 goat anti rabbit IgG, Invitrogen, A11012; Alexa flour 488 donkey anti mouse IgG, Invitrogen, A21202) and Hoechst, 20 μg/ml (Sigma, 33342) in blocking solution, and washed again 3 times with PBS. Finally, PBS was added and high throughput imaging and analysis were performed by an IN Cell Analyzer 1000 (GE Healthcare). The robot software analyzed individual cells and divided these into HA^+ (transfected cells) and HA^− (non-transfected cells). The IC50 values in Table 7 below were based on an average measure of the staining of the mark specified in the Table 6 below in the transfected cells.

GASC1 (KDM4C) = target: T2, GASC1 (KDM4C) (Homo sapiens, UniProt Q9H3R0); test: Immunofluorescence assay in U2OS cells transfected with pCMVHA JMJD2C (H3K9me3 mark)
T2 construct: Full length; host or cells: U2OS
T2 sequence (Q9H3R0 1-1056): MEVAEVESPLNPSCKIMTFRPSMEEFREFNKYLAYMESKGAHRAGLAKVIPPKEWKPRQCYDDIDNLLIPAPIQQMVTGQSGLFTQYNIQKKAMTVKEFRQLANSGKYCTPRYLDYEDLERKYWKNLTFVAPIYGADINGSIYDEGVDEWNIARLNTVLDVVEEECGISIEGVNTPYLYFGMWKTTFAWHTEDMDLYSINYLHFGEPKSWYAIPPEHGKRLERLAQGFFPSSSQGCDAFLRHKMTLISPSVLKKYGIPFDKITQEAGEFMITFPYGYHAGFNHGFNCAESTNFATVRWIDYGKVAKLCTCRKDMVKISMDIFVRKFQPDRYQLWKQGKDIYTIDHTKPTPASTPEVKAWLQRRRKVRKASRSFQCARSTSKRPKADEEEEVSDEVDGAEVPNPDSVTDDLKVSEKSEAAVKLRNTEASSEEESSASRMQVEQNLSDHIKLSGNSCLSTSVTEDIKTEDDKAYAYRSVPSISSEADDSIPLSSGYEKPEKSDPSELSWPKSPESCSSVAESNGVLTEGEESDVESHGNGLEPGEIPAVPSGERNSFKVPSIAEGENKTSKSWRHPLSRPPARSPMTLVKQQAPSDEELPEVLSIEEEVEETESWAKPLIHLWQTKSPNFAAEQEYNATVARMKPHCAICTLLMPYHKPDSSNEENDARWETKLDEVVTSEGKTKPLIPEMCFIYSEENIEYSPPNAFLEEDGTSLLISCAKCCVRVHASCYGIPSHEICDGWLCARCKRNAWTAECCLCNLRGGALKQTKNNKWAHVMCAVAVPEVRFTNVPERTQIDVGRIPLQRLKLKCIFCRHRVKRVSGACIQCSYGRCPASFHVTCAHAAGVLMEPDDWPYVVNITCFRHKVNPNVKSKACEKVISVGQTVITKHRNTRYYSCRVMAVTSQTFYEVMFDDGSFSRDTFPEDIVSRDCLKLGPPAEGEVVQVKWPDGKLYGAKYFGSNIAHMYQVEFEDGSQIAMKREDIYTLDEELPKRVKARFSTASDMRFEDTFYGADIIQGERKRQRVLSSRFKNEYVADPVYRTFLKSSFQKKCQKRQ
Procedure: as §1

PLU1 (KDM5B) = target: T3, PLU1 (KDM5B) (Homo sapiens, UniProt Q9UGL1); test: Immunofluorescence assay in U2OS cells transfected with pCMVHA PLU1 (H3K4me2 mark)
T3 construct: (1-752); host or cells: U2OS
T3 sequence (Q9UGL1 1-752): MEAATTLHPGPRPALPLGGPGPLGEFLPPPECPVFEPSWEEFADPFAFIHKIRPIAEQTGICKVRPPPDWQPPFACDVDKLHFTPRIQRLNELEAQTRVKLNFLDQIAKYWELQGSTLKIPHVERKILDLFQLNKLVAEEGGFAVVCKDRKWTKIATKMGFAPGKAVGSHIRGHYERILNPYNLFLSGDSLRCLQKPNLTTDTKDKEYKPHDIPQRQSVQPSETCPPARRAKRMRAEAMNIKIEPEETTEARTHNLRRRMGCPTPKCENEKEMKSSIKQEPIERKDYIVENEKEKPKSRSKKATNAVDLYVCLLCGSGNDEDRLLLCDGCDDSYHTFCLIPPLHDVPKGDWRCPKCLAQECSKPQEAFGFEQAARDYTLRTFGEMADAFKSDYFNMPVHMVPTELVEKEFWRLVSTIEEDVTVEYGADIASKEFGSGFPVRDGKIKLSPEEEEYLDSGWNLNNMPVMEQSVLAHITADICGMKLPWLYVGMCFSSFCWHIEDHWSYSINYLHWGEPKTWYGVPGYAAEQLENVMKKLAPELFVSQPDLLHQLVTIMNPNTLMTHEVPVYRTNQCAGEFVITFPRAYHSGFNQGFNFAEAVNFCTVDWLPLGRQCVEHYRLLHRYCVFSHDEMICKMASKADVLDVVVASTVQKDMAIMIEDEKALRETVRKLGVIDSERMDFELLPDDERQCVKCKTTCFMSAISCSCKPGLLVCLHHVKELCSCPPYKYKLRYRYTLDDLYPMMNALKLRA
Procedure, shortened: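 U2OS cells transiently expressing HA-tagged demethylase, exposed to compound 6 h post-transfection for 20 h in DMEM/5% FBS. Cells fixed, then immunostained for HA and the histone methyl mark and imaged by high-content analysis. IC50 from mean mark staining in HA-positive transfected cells.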

Structure (SMILES)	IC50 (JMJD2A (KDM4A)) [µM]	IC50 (GASC1 (KDM4C)) [µM]	IC50 (PLU1 (KDM5B)) [µM]
CSCCNCc1cc(C(=O)O)ccn1 [drawing 304, 2-({[2-(methylsulfanyl)ethyl]amino}methyl)pyridine-4-carboxylic acid]	1 to 50		
CCN(CCN(C)C)C(=O)CNCc1cc(C(=O)O)ccn1 [drawing 328, 2-{[({[2-(dimethylamino)ethyl](ethyl)carbamoyl}methyl)amino]methyl}pyridine-4-carboxylic acid]	1 to 50	> 50	1 to 50
CCCCCCCCCCCCCCCC(=O)OCC(COC(=O)CCCCCCCCCCCCCCC)OC(=O)c1ccnc(CNCC(=O)N(CC)CCN(C)C)c1 [drawing 334, 2-(2-{[({[2-(dimethylamino)ethyl](ethyl)carbamoyl}methyl)amino]methyl}pyridine-4-carbonyloxy)-3-(hexadecanoyloxy)propyl hexadecanoate]	1 to 50		
CCOC(=O)N(C)c1ccc(COC(=O)c2ccnc(CNCCCCN(CC)CC)c2)cc1 [drawing 333, {4-[(ethoxycarbonyl)(methyl)amino]phenyl}methyl 2-({[4-(diethylamino)butyl]amino}methyl)pyridine-4-carboxylate]	< 1		
